TGI and GI50 data for ten compounds are collected here from PubChem BioAssay (NCI).

SMILES strings stand for the structures.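 The compound was tested at five concentrations on cells cultured in 96-well plates, with a 48-hour exposure period. GI50 = concentration required for 50% inhibition of growth. TGI: concentration producing complete growth inhibition.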

Common to all, as to assay: NCI anticancer screen, dose series, 48 h
In test [1] the test system is COLO 205 colon.
Test [2] relates to SNB-75 CNS.
The subject of test [3] is SF-268 CNS.
Test [4] has as its system SK-MEL-2 melanoma.
Test [5] has as its system KM12 colon.
The subject of test [6] is SF-539 CNS.
In test [7] the test system is A549 NSCLC.
The test system of test [8] is 786-0 renal.
Test [9] relates to TK-10 renal.

In the case of `CC(=O)OCC(OC(C)=O)C(OC(C)=O)C(OC(C)=O)C(=O)CNn1c(-c2ccccc2Cl)nc2ccccc2c1=O` (stereo not drawn), the TGI in test [1], in [2], in test [3], in test [4], in test [5] and in [6] was over 100 µM in each case. For the same compound, the TGI in test [7] and in test [8] was over 100 µM throughout.

For the compound `CCOC(=O)c1s/c(=N\Nc2nc3ccccc3cc2C2OCCO2)n(Cc2ccccc2)c1C`, the TGI in test [1], in [2], in test [3], in [9], in test [4] and in test [5] was over 100 µM in each case. Besides, the TGI in test [6], in test [7] and in test [8] was over 100 µM throughout.

Consider `O=C(O)C1CCCCC1C(=O)O.[NH-]C1CCC1.[NH2-].[Pt+2]` (stereo not drawn), for which the GI50 is 10.3 µM in test [1]; 84.6 µM in test [2]; over 100 µM in test [3]; 18.1 µM in [9]; 57.2 µM in test [4]; over 100 µM in [5]. Further, the GI50 in [6] was 17 µM; in test [7], 30.7 µM; in test [8], 15.4 µM. Also, the TGI in test [1] was 24.6 µM; in [2], over 100 µM; in [3] it was over 100 µM; in test [9], 34.4 µM; in test [4] it was over 100 µM; in test [5], over 100 µM. Moreover, the TGI in [6] is 33.2 µM; in test [7], over 100 µM; in test [8], 33 µM.

For `Cc1cc(C)c(C(=O)c2no[n+]([O-])c2C(=O)c2c(C)cc(C)c(Br)c2C)c(C)c1Br`, the TGI in test [1] came out at 31.4 µM; in test [2], 25.8 µM; in [3], 29.8 µM; in [9], 26.5 µM; in [4] it was 30.9 µM; in test [5], 26.4 µM. The TGI in [6] is 29.1 µM; in test [7], 39.1 µM; in [8], 32.8 µM.

Regarding `CCCCN(CCCC)c1c([N+](=O)[O-])c(=O)nc2ccccn12`, the TGI in [1] was over 100 µM; in test [2], over 100 µM; in test [3], over 100 µM; in [9], 85 µM; in [4], over 100 µM; in test [5] it was over 100 µM. Further, the TGI in test [6], in test [7] and in test [8] was over 100 µM in each case.

For `COc1ccc2c(c1)/C(=C\c1c(Cl)[nH]c3ccc(OC)cc13)C(=O)N2`, the GI50 was 18.9 µM in test [1]; 61.2 µM in [3]; 44 µM in [9]; 25.8 µM in test [4]; 17.5 µM in [5]; 65.1 µM in test [7]. For the same compound, the GI50 in test [8] was 43.7 µM. Besides, the TGI in test [1] was 39.8 µM; in [3], over 100 µM; in [9], over 100 µM; in test [4], 62.8 µM; in test [5], 34.9 µM; in test [7], over 100 µM. In [8], this compound yielded a TGI of over 100 µM.

As for `CCOC(=O)c1cc(/C=C/C(C)=C/C(=O)OC)oc1C`, the TGI in [1], in test [2], in test [3], in test [9], in [4] and in [5] was over 100 µM throughout. Also, the TGI in test [6], in test [7] and in [8] was over 100 µM each time.

For the compound `COC1OC(CO)C(O)C1N` (stereo not drawn), the TGI in test [1], in test [2], in test [3], in test [9], in test [5] and in test [6] was over 100 µM throughout. In addition, the TGI in test [7] and in test [8] was over 100 µM throughout.

As for `OC1(c2ccccc2)OC(C#Cc2ccccc2)(c2ccccc2)c2ccccc21` (stereo not drawn), the TGI worked out at 5.38 µM in test [1]; 20.4 µM in test [2]; 15.2 µM in [3]; 26.2 µM in test [9]; 2.99 µM in test [5]; 4.07 µM in test [6]. The TGI in test [7] stood at 14.8 µM; in test [8], 13.5 µM.

Take `Nc1ccccc1C#C/C=C\C#Cc1ccccc1`: the GI50 is 14.9 µM in test [1]; 13.7 µM in test [2]; 5.93 µM in [3]; 25.5 µM in [4]; 4.51 µM in [5]; 13 µM in test [6]. Also, the values for the GI50 in test [7] and in [8] were 17.8 µM and 16.3 µM, respectively. The TGI is 29.3 µM in test [1]; 58.9 µM in [2]; 28 µM in [3]; 98.3 µM in test [4]; 20.2 µM in [5]; 28.6 µM in test [6]. Moreover, the TGI in test [7] amounted to 77.7 µM; in test [8], 40.9 µM.
